Data reported in publication PMC6482174, “Fragment-based screening identifies inhibitors of ATPase activity and of hexamer formation of Cagα from the Helicobacter pylori type IV secretion system” (Scientific Reports, 2019).

Experiments:
Cagα ATPase activity = Cagα ATPase activity (Helicobacter pylori, UniProt G5EB02); test: Malachite green ATPase activity assay; assay type: biochemical; details: for Mechanism of inhibition: inhibitor 0 to 500 μM, ATP varied, only Vmax affected, Km constant
Experimental: We used a Malachite green assay to measure the release of inorganic phosphate from ATP to assess whether the 16 binding fragments impact the enzymatic activity of Cagα. […] Therefore, the mechanism of inhibition by molecules 1G2 and 1G2#4 is non-competitive.
The ATPase activity was quantified using a malachite green binding assay. The 100 μL reaction mixtures contained 25 mM HEPES (pH 7.5), 100 mM NaCl, 60 nM of enzyme and 200 µM of MgCl2 with different concentrations of ATP (0 µM–320 µM) to determine kinetic parameters. The reaction mixtures were incubated for 30 min at 30 °C and then 40 μL of malachite green assay mixture was added. The formation of the blue phosphomolybdate-malachite green complex was in linear relation to the amount of released inorganic phosphate and measured at 610 nm. To study the mechanism of inhibition, the concentrations of inhibitors were varied between 0 and 500 μM with different concentrations of ATP (0–40 μM). Initial velocity data were fit using nonlinear regression analysis to each of the equations describing partial and full models of competitive, uncompetitive, non-competitive, and mixed inhibition using the Enzyme Kinetics Module of SigmaPlot (SigmaPlot version 11.0 software). On the basis of the analysis of fits through “goodness-of-fit” statistics, the full non-competitive inhibition model was determined with the equation ν = Vmax/[(1 + [I]/Ki) × (1 + Km/[S])], where [S] = [ATP], [I] = [1G2].
IC50 values were determined by incubating different concentrations of molecules (10–1,000 µM; from stocks of 200 mM) with enzyme in 25 mM HEPES (pH 7.5) and 100 mM NaCl. Mixtures were incubated with inhibitors for 15 min, followed by addition of ATP and incubation for 30 min at 37 °C. The reactions were stopped by addition of 40 µl malachite green solution and the inorganic phosphate released was determined at 610 nm. Data were plotted as 1/rate versus inhibitor concentration for each substrate concentration and a linear fit was calculated by non-linear regression using SigmaPlot (version 11.0).

[1] = system: IL-8 production by AGS cells upon co-cultivation with H. pylori; test: IL-8 induction in AGS cells co-cultivated with H. pylori (ELISA); assay type: cell-based, Helicobacter pylori; details: 200 μM
Description: (§1) Finally, we assessed whether molecule 1G2 or its derivates impact the functionality of the T4SS in vivo. To this effect, we tested their impact on the interaction of H. pylori strain 26695 with gastric adenocarcinoma (AGS) cells. […] We then tested the effects of these molecules in two commonly used assays for downstream effects of T4SS function: IL-8 production and CagA phosphorylation. […] In contrast, derivates 1G2#1 to #6 have no effect on IL-8 production. Similarly, none of the molecules reduces the tyrosine phosphorylation of the T4SS-translocated virulence factor CagA, which is generally used as an alternative assay to measure T4SS function (Supplementary Fig. 8). […] This observation may be due to partial inhibition of T4SS function by 1G2 that is more readily quantifiable in the IL-8 production assay as compared to the CagA phosphorylation assay.
Figure 6 Molecule 1G2 decreases IL-8 induction in co-cultivated AGS cells. H. pylori 26695 without and after pre-incubation with 1G2 and its derivatives for […]. AGS cells were then co-cultured with H. pylori overnight and IL-8 induction was measured by ELISA. The induction of IL-8 by the wild type was calculated as 100% (WT), induction of IL-8 by the ΔcagV strain was used as negative control. The data represent the results from three experiments. […]

[2] = system: tyrosine phosphorylation of the T4SS-translocated virulence factor CagA; test: CagA transfer into AGS cells / CagA tyrosine phosphorylation (western blot); assay type: cell-based, Helicobacter pylori; details: H. pylori pre-incubated with molecule, AGS infection
Description: as §1
Preceding the infection, an overnight culture of H. pylori was pre-incubated with 1G2 and its derivates for 30 min. AGS cells at 6 × 10^5 cells/well density in 6-well plates were infected with the pre-treated cultures of H. pylori for 3–6 h at a multiplicity of infection of 100:1. […]
Western blot analyses were reproduced four times and intensities of the CagAPY signals were quantified (Image Lab TM Software) and normalized using anti -b-actin signals. […]

H. pylori 26695 = test: H. pylori growth on solid agar media (Whatman paper disks); assay type: cell-based, Helicobacter pylori; details: 72 h
Description: as §1
AGS cell viability was monitored using Cell Proliferation Reagent WST-1 (Sigma). To evaluate the sensitivity of H. pylori to 1G2 and its derivates, freshly harvested bacteria were spread on a 150-mm agar plate. Increasing concentrations of compounds (50–500 μM) were spotted onto Whatman paper disks and growth was observed after 72 h incubation at 37 °C under microaerophilic conditions and compared to antibiotics (50–250 μM).
Supplementary Figure 6. Effects of molecule 1G2 and its derivates on H. pylori growth. […]

Sequence of Cagα ATPase activity (G5EB02 entry or part of it): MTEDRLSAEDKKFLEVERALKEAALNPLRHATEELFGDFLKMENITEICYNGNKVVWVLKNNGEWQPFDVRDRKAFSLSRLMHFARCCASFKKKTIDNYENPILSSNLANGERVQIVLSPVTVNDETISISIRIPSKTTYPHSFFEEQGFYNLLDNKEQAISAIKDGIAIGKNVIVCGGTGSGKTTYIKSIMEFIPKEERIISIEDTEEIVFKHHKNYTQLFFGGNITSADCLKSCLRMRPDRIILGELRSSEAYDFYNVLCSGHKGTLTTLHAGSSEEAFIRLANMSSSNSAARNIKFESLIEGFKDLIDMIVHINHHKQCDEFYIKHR

SMILES	IC50 (Cagα ATPase activity)	Mechanism of inhibition (Cagα ATPase activity)	Effect on IL-8 production (in words) [1]	Effect on tyrosine phosphorylation of CagA [2]	Effect on growth of H. pylori on solid agar media (H. pylori 26695; concentrations up to 500 μM)	IL-8 production, of the control ([1]; wild type without molecule = 100%)	Effect on growth of H. pylori (control antibiotic) (H. pylori 26695; several concentrations on Whatman paper disks)
Cc1ccc(Oc2ccc(C(=O)O)cc2)nc1 [1G2#4]	81.9 µM	non-competitive	no effect	no effect			
O=C(O)c1ccc(Oc2ccccn2)cc1 [1G2]	196 µM	non-competitive		did not observe an effect	no negative effect	about 50%	
O=C(N[C@H](CO)[C@H](O)c1ccc([N+](=O)[O-])cc1)C(Cl)Cl [chloramphenicol, reference compound]							inhibition of growth
